# Test results as given in PMC9226319, “Peripherally restricted transthyretin-based delivery system for probes and therapeutics avoiding opioid-related side effects” (Nature Communications, 2022).
# Values joined by “and” are separate entries in the source; they are usually repeats but may differ in a detail not shown here. Equal values may be shown once. Read-outs that look alike come from different tables or passages of the source.
# How the values were obtained:
# male Sprague-Dawley rats = details: rat, in vivo
# in vivo [1] = details: male, Sprague Dawley, rat, sc
# [2] = biological target: T1, delta-opioid receptor (human) (Homo sapiens, UniProt P41143); assay: Human delta-opioid receptor (agonist radioligand [3H]-DADLE) binding assay; details: for % Inhibition of Control Specific Binding: delta-opioid receptor binding, replicates 1st/2nd
# T1 construct: Eurofins Cerep (France)
# T1 sequence (P41143 whole entry): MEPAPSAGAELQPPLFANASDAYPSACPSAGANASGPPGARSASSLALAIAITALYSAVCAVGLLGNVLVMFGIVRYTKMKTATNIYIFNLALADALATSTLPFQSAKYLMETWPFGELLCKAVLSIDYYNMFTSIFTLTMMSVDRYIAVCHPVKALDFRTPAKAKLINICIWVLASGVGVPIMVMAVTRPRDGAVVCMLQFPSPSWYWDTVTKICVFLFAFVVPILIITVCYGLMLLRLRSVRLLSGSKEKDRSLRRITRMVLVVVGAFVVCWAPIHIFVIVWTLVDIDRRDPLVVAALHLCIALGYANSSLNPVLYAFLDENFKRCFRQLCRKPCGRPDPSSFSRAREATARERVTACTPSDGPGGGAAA
# [3] = Serum stability assay of AG10-L2-Nal, human serum; assay type: in vitro ADME; details: 100 µM
# Procedure: AG10-L2-Nal (100 μM) was incubated in sera, and the concentration remaining in respective media was determined at 0 and 48 h using HPLC. Bar graphs represent the mean of % compound remaining ± s.d. […] The plasma, brain tissue, and CSF were collected at 30 min after dosing. The ratio of the brain (ng/g) versus plasma concentration (ng/mL) is expressed as the percentage brain to plasma ratio. The ratio of the CSF (ng/mL) versus plasma concentration (ng/mL) is expressed as the percentage CSF to plasma ratio. Bar graphs show the respective mean (±s.d.) (n = 3 for each group). […] The concentration of the test compounds in plasma was determined at different time points and expressed as means ± s.d. of three biological replicates. Source data are provided as a Source Data file. […]
# (Taiwan). The experimental procedure was performed as reported12. […]
# Serum stability assay of AG10-L2-Nal. […] 100 μL samples were analyzed at 0 h, 24 h, and 48 h time intervals. […] The supernatant was analyzed using Waters™ XBridge C18 column (4.6x250 mm, 5μm) on Waters e2695 separations module HPLC system connected to a Waters 2998 photodiode array detector operating between the UV ranges of 200-400 nm. […]
# [4] = biological target: T2, kappa opioid receptor (rat) (Rattus norvegicus, UniProt P34975); assay: Rat kappa-opioid receptor (agonist radioligand [3H] U 69593) binding assay; details: for % Inhibition of Control Specific Binding: kappa-opioid receptor binding, replicates 1st/2nd
# T2 construct: Eurofins Cerep (France)
# T2 sequence (P34975 whole entry): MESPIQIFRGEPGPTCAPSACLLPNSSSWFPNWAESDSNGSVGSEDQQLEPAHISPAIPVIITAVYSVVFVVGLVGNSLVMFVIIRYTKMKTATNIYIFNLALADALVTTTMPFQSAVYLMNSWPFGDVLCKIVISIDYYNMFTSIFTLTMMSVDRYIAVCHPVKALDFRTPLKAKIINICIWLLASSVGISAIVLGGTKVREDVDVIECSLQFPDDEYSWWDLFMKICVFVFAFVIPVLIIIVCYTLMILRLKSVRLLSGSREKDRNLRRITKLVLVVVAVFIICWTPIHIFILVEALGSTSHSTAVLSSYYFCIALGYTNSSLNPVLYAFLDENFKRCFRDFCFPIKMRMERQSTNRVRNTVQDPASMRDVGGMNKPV
# in vivo [5] = details: male, Sprague Dawley, rat, iv
# [6] = rat; for plasma concentration: individual animals
smiles,measurement,setting,value
C=CCN1CC[C@]23c4c5ccc(O)c4O[C@H]2[C@@H](OCc2cn(CCNCCCCCCOc4cc(OCCCc6c(C)n[nH]c6C)cc(C(=O)O)c4)nn2)CC[C@@]3(O)[C@H]1C5 [AG10-L2-Nal],plasma concentration,"male Sprague-Dawley rats; male, Sprague-Dawley",7600 ± 500 nM
same,Hot plate latency,male Sprague-Dawley rats,60 s
same,hot plate latency,male Sprague-Dawley rats,significant analgesia
same,reversal of morphine-induced analgesia in the presence of AG10,male Sprague-Dawley rats,no reversal of analgesia
same,hot plate latency,male Sprague-Dawley rats; iv,60 s
same,AUC(0-inf),in vivo [1]; 16 umol/kg,17.6 ± 2.54 µM·h
same,CL/F,in vivo [1]; 16 umol/kg,15.3 mL/min/kg
same,Vd/F,in vivo [1]; 16 umol/kg,4.89 ± 1.83 L/kg
same,half-life,in vivo [1]; 16 umol/kg,3.62 ± 0.76 h
same,concentration at 0.25 h,"in vivo [1]; 16 µmol/kg, plasma concentration, SC 16 µmol/kg, 0.25 h, individual animals",7560 nM
same,concentration at 0.5 h,"in vivo [1]; 16 µmol/kg, plasma concentration, SC 16 µmol/kg, 0.5 h, individual animals",4680 nM
same,concentration at 0.75 h,"in vivo [1]; 16 µmol/kg, plasma concentration, SC 16 µmol/kg, 0.75 h, individual animals",4580 nM
same,concentration at 1 h,"in vivo [1]; 16 µmol/kg, plasma concentration, SC 16 µmol/kg, 1 h, individual animals",4240 nM
same,concentration at 2 h,"in vivo [1]; 16 µmol/kg, plasma concentration, SC 16 µmol/kg, 2 h, individual animals",2370 nM
same,concentration at 4 h,"in vivo [1]; 16 µmol/kg, plasma concentration, SC 16 µmol/kg, 4 h, individual animals",1470 nM
same,concentration at 6 h,"in vivo [1]; 16 µmol/kg, plasma concentration, SC 16 µmol/kg, 6 h, individual animals",1050 nM
same,concentration at 8 h,"in vivo [1]; 16 µmol/kg, plasma concentration, SC 16 µmol/kg, 8 h, individual animals",727 nM
same,concentration at 24 h,"in vivo [1]; 16 µmol/kg, plasma concentration, SC 16 µmol/kg, 24 h, individual animals",40.6 nM
same,Ki,"[2]; [3H]-DADLE displacement, read-out: binding affinity to delta-opioid receptor (Ki)",5.5 nM
same,% Inhibition of Control Specific Binding,[2]; 1.0E-07 M,91.6% and 94.2%
same,% Inhibition of Control Specific Binding,[2]; 1.0E-08 M,53.9% and 52.4%
same,% Inhibition of Control Specific Binding,[2]; 1.0E-09 M,14.6% and 12.2%
same,% Inhibition of Control Specific Binding,[2]; 1.0E-10 M,2.7% and 9.1%
same,% Inhibition of Control Specific Binding,[2]; 5.0E-08 M,83.7% and 87.4%
same,% compound remaining in human serum,"[3]; 0 h, replicates",101.76% and 98.77% and 99.47%
same,% compound remaining in human serum,"[3]; 37 °C, 48 h, table replicates",100% and 100.03% and 100.96% and 96.87%
same,Ki,"[4]; [3H] U 69593 displacement, read-out: binding affinity to kappa-opioid receptor (Ki)",0.12 nM
same,% Inhibition of Control Specific Binding,[4]; 1.0E-07 M,98.2% and 98.6%
same,% Inhibition of Control Specific Binding,[4]; 1.0E-08 M,96.0%
same,% Inhibition of Control Specific Binding,[4]; 1.0E-09 M,83.2% and 82.8%
same,% Inhibition of Control Specific Binding,[4]; 1.0E-10 M,41.5% and 28.1%
same,% Inhibition of Control Specific Binding,[4]; 5.0E-08 M,98.3% and 97.6%
same,AUC(0-inf),in vivo [5]; 4.84 umol/kg,16.9 ± 1.09 µM·h
same,Vd,in vivo [5]; 4.84 umol/kg,0.12 ± 0.02 L/kg
same,clearance,in vivo [5]; 4.84 umol/kg,4.83 mL/min/kg
same,half-life,in vivo [5]; 4.84 umol/kg,5.98 ± 0.81 h
same,concentration at 0.03 h,"in vivo [5]; 4.84 µmol/kg, plasma concentration, IV 4.84 µmol/kg, 0.03 h, individual animals",48800 nM
same,concentration at 1 h,"in vivo [5]; 4.84 µmol/kg, plasma concentration, IV 4.84 µmol/kg, 1 h, individual animals",295 nM
same,concentration at 2 h,"in vivo [5]; 4.84 µmol/kg, plasma concentration, IV 4.84 µmol/kg, 2 h, individual animals",234 nM
same,concentration at 12 h,"in vivo [5]; 4.84 µmol/kg, plasma concentration, IV 4.84 µmol/kg, 12 h, individual animals",9.6 nM
same,fold higher AUCinf than naloxegol,[6]; IV 4.84 µmol/kg,~23 fold
same,fold higher AUCinf than naloxone,[6]; IV 4.84 µmol/kg,~12 fold
same,fold increase in half-life compared to naloxegol,[6]; IV 4.84 µmol/kg,3.5 fold
same,fold increase in half-life compared to naloxone,[6]; IV 4.84 µmol/kg,7 fold
same,plasma concentration,"[6]; IV 4.84 µmol/kg, 0.03 h",57263.9 nM and 57506.1 nM
same,plasma concentration,"[6]; IV 4.84 µmol/kg, 0.5 h",2941.9 nM and 1319.6 nM and 2239.7 nM
same,plasma concentration,"[6]; IV 4.84 µmol/kg, 1 h",296.6 nM and 441.9 nM
same,plasma concentration,"[6]; IV 4.84 µmol/kg, 2 h",155 nM and 181.6 nM
same,plasma concentration,"[6]; IV 4.84 µmol/kg, 4 h",92.9 nM and 28.6 nM and 125.9 nM
same,plasma concentration,"[6]; IV 4.84 µmol/kg, 6 h",75.2 nM and 37 nM and 51.6 nM
same,plasma concentration,"[6]; IV 4.84 µmol/kg, 8 h",23 nM and 56.2 nM and 25.7 nM
same,plasma concentration,"[6]; IV 4.84 µmol/kg, 12 h",14.4 nM and 12 nM
same,plasma concentration,"[6]; IV 4.84 µmol/kg, 24 h",3.4 nM and 7.2 nM and 2.7 nM
same,k,[6]; single IV bolus 4.84 µmol/kg,0.12 ± 0.02 h⁻¹
